Assays:
Assay in all cases: CellTiter-Blue cell viability assay
Format in all cases: cell-based, human
OVCAR10 = OVCAR10 ovarian cancer cell line, 72 hours, 50% reduction in growth/viability
From the text: (§1) Ovarian cancer cell lines were obtained from the American Type Culture Collection (Manassas, Va.) (CAOV3, OV90, OVCAR3, SKOV3, TO[…]); from the European Collection of Cell Cultures, Salisbury, UK (A2780CP, A2780S); or from Kyoto University, Kyoto, Japan ([…], Tyknu, and TyknuC is R) or were kind gifts from Dr. Patricia Kruk, Department of Pathology, College of Medicine, University of South Florida, Tampa, Fla., and Susan Murphy, PhD, Dept of OBGYN/Division of GYN Oncology, Duke University, Durham, N.C. […] Cell lines were maintained in RPMI-1640 (Invitrogen, Carlsbad, Calif.) supplemented with 10% fetal bovine serum (Fisher Scientific, Pittsburgh, Pa.), 1% sodium pyruvate, 1% penicillin/streptomycin (Cellgro, Manassas, Va.), and 1% nonessential amino acids (HyClone, Hudson, N.H.). Mycoplasma testing was performed every 6 months following manufacturer's protocol (Lonza, Rockland, Me.). Drug activity was evaluated using a high-throughput CellTiter-Blue cell viability assay. […] After cell adherence, increasing concentrations of cisplatin, carboplatin (Sigma-Aldrich, St. Louis, Mo.), paclitaxel (Sequoia Research Products Ltd., Pangbourne, UK), or carboplatin plus paclitaxel (carbotaxol: constant molar ratio of carboplatin to paclitaxel of 20,000:1) were added to appropriate wells using an automated pipetting station. Four replicate wells were used for each drug concentration and vehicle controls. […] The cells were incubated with the drug for 72 hours, and 5 μL of CellTiter-Blue reagent (Promega Corp) was added to each well. Fluorescence was read at […] using a Synergy 4 microplate reader (Bio-Tek Instruments, Inc., Winooski, Vt.).

OVCA420 = OVCA420 ovarian cancer cell line; 72 hours; 50% reduction in growth/viability
From the text: as §1

SK-OV-4 = SK-OV-4 ovarian cancer cell line, 72 hours, 50% reduction in growth/viability
From the text: as §1

IMCC5 = IMCC5 ovarian cancer cell line, 72 hours, 50% reduction in growth/viability
From the text: as §1

OVCAR5 = OVCAR5 ovarian cancer cell line, 72 hours, 50% reduction in growth/viability
From the text: as §1

IMCC3 = IMCC3 ovarian cancer cell line; 72 hours; 50% reduction in growth/viability
From the text: as §1

TyknuCisR = TyknuCisR ovarian cancer cell line, 72 hours, 50% reduction in growth/viability
From the text: as §1

OVCAR3 = OVCAR3 ovarian cancer cell line, 72 hours, 50% reduction in growth/viability
From the text: as §1

FUOV1 = FUOV1 ovarian cancer cell line, 72 hours, 50% reduction in growth/viability
From the text: Ovarian cancer cell lines were obtained from the American Type Culture Collection (Manassas, Va.) (CAOV3, OV90, OVCAR3, SKOV3, TOV112D); from the European Collection of Cell Cultures, Salisbury, UK (A2780CP, A2780S); or from Kyoto University, Kyoto, Japan (CHI, CHIcisR, M41, M41CSR, Tyknu, and TyknuC is R) or were kind gifts from Dr. Patricia Kruk, Department of Pathology, College of Medicine, University of South Florida, Tampa, Fla., and Susan Murphy, PhD, Dept of OBGYN/Division of GYN Oncology, Duke University, Durham, N.C. (A2008, C13, CAOV2, FUOV1, HeyA8, IGR-OV1, IMCC3, IMCC5, MCAS, OV2008, OVCA420, OVCA429, OVCA432, OVCA433, OVCAR4, OVCAR5, OVCAR8, Dov13, BG1, Ovary1847, OVCAR10, OVCAR2, SK-OV-4).
Cell lines were maintained in RPMI-1640 (Invitrogen, Carlsbad, Calif.) supplemented with 10% fetal bovine serum (Fisher Scientific, Pittsburgh, Pa.), 1% sodium pyruvate, 1% penicillin/streptomycin (Cellgro, Manassas, Va.), and 1% nonessential amino acids (HyClone, Hudson, N.H.). […]
Drug activity was evaluated using a high-throughput CellTiter-Blue cell viability assay. […] Fluorescence was read at […] using a Synergy 4 microplate reader (Bio-Tek Instruments, Inc., Winooski, Vt.). IC50 results were determined using a sigmoidal equilibrium model fit (XLfit 5.2, ID Business Solutions Ltd.). […]

| SMILES | IC50 (OVCAR10) [µM] | IC50 (OVCA420) [µM] | IC50 (SK-OV-4) [µM] | IC50 (IMCC5) [µM] | IC50 (OVCAR5) [µM] | IC50 (IMCC3) [µM] | IC50 (TyknuCisR) [µM] | IC50 (OVCAR3) [µM] | IC50 (FUOV1) [µM] | IC50 (OVCAR10; Homo sapiens) [µM] | IC50 (SK-OV-4; Homo sapiens) [µM] | IC50 (IMCC5; Homo sapiens) [µM] | IC50 (OVCAR5; Homo sapiens, OVCAR-5) [µM] | IC50 (TyknuCisR; Homo sapiens) [µM] | IC50 (OVCAR3; Homo sapiens, OVCAR-3) [µM] | IC50 (FUOV1; Homo sapiens) [µM] |
| --- | --- | --- | --- | --- | --- | --- | --- | --- | --- | --- | --- | --- | --- | --- | --- | --- |
| N.N.O=C([O-])C1(C(=O)[O-])CCC1.[Pt+2] [Carboplatin, carboplatin] | 128 | 166 | 23 | 41.3 | 125 | 69.5 | 63.7 | 83.7 | 87.9 | – | – | – | – | – | – | – |
| CC(=O)O[C@H]1C(=O)[C@@]2(C)[C@H]([C@H](OC(=O)c3ccccc3)[C@]3(O)C[C@H](OC(=O)[C@H](O)[C@@H](NC(=O)c4ccccc4)c4ccccc4)C(C)=C1C3(C)C)[C@]1(OC(C)=O)CO[C@@H]1C[C@@H]2O [Paclitaxel, paclitaxel] | – | – | – | – | – | – | – | – | – | 0.0071 | 0.0023 | 0.0031 | 0.0056 | 0.0072 | 0.0169 | 4.4 |

— US10982284B2, “Compositions and methods APC, CREB, and BAD pathways to assess and affect cancer” (H. Lee Moffitt Cancer Center and Research Institute, Inc., priority 2011, dated 2021)
